Measurements published in patent US11492335B2, “Aryl or heteroaryl triazolone derivatives or salts thereof, or pharmaceutical compositions comprising the same” (YUHAN CORPORATION, priority 2018, dated 2022).
Counter-ions that a name gives are not always drawn.

Columns and labels:
Assay type in all cases: biochemical
[1] = target: T1, recombinant human DAO (diamine oxidase) (Homo sapiens, UniProt P19801); experiment: Activity on recombinant human DAO, Amplex Red method, 1 mM putrescine substrate; conditions: recombinant human DAO, 1 mM putrescine; * = between 10 and 100 nM, ** = between 300 and 1000 nM; read-out: Inhibitory Activity (IC50, nM) DAO
T1 construct: purchased R&D systems
T1 sequence (P19801 20-751): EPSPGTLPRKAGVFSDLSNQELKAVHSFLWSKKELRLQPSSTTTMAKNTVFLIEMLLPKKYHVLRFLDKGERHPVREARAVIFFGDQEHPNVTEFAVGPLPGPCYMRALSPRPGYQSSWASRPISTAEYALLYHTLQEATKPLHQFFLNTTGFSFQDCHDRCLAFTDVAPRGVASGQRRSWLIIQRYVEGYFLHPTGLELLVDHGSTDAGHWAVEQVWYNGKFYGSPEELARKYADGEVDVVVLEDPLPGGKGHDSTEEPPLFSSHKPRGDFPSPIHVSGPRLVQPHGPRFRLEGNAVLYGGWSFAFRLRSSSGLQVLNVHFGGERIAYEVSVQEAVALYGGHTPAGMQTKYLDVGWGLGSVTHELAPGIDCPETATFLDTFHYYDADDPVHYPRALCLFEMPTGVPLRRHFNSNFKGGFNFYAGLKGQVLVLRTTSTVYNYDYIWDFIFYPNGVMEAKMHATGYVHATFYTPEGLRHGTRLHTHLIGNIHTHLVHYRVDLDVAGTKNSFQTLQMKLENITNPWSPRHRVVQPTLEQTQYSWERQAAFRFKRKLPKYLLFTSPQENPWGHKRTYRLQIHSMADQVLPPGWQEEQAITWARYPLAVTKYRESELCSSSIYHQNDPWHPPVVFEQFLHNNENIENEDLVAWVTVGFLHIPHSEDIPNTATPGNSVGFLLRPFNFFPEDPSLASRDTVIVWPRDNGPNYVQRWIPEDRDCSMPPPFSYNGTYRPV
Method in brief: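 Inhibition of recombinant human DAO (diamine oxidase, R&D systems) was assessed with the Amplex Red Hydrogen Peroxide Assay Kit. Hydrogen peroxide produced from 1 mM putrescine was detected through an HRP-coupled reaction that converts Amplex Red into fluorescent resorufin, read at 544 nm excitation and 590 nm emission. IC50 values came from four-parameter logistic fits in GraphPad Prism.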

[2] = target: T2, recombinant human MAO-B (monoamine oxidase-B) (Homo sapiens, UniProt P27338); experiment: Activity on recombinant human MAO-B, Amplex Red method, 1 mM benzylamine substrate; conditions: 1 mM benzylamine, read-out: Inhibitory Activity (IC50, nM) MAO-B
T2 construct: purchased Sigma-Aldrich
T2 sequence (P27338 1-520): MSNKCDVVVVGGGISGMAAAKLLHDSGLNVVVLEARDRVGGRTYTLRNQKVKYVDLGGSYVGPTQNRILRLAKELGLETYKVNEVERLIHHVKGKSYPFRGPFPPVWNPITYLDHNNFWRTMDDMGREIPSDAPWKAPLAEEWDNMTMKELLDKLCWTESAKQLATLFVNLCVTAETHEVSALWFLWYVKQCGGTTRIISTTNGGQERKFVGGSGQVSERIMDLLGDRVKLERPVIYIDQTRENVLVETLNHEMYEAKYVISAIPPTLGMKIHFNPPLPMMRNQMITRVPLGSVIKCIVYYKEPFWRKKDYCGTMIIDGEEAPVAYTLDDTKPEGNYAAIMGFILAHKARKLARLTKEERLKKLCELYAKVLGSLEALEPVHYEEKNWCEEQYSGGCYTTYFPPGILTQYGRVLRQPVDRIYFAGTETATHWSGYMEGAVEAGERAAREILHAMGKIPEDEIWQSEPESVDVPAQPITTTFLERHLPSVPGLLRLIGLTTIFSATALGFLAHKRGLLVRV
Method in brief: (§1)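 Enzyme preincubated with compound 30 min at 37 °C in 50 mM sodium phosphate pH 7.4, final DMSO below 1%. Substrate was 0.5 mM tyramine for MAO-A and 1 mM benzylamine for MAO-B, with 200 uM Amplex Red and 1 U/mL HRP. H2O2-coupled resorufin fluorescence (ex 544/em 590) followed over 1–2 h; 8-point 4-parameter IC50.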

[3] = target: T3, recombinant human VAP-1 (Homo sapiens, UniProt Q16853); experiment: Activity on recombinant human VAP-1, Amplex Red HRP-coupled hydrogen peroxide assay, benzylamine substrate; conditions: recombinant human VAP-1, benzylamine substrate, 30 min preincubation at 37° C.; read-out: Inhibitory Activity (IC50, nM) human VAP-1
T3 construct: purchased R&D systems
T3 sequence (Q16853 1-763): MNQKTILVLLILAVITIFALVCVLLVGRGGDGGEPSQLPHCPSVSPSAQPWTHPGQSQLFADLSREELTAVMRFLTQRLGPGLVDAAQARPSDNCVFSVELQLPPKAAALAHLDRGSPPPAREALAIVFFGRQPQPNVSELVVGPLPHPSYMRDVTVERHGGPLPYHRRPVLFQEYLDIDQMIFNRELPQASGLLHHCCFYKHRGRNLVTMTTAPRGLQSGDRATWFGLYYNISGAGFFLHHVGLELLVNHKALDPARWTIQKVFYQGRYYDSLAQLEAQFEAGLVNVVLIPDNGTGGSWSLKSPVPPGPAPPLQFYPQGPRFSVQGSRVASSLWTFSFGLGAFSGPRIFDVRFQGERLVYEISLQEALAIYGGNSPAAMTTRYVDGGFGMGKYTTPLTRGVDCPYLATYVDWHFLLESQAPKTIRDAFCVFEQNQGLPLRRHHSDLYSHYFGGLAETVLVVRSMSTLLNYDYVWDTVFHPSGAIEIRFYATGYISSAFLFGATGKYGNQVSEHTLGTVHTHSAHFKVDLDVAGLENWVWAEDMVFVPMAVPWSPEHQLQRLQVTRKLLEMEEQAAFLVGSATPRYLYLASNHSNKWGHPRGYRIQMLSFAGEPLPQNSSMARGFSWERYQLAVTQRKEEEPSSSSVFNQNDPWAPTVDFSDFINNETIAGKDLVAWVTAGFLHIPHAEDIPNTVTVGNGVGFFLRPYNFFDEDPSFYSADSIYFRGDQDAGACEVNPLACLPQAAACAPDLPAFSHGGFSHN
Method in brief: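 Enzyme in 50 mM sodium phosphate pH 7.4 preincubated with compound 30 min at 37 °C, then 1 mM benzylamine, 200 µM Amplex Red and 1 U/mL HRP added. H2O2-derived resorufin fluorescence (ex 544/em 590 nm) followed over 1–2 h; signal-rate decrease versus DMSO control, 8-point curve, four-parameter logistic IC50.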

[4] = target: T4, recombinant human MAO-A (monoamine oxidase-A) (Homo sapiens, UniProt P21397); experiment: Activity on recombinant human MAO-A, Amplex Red method, 0.5 mM tyramine substrate; conditions: 0.5 mM tyramine, read-out: Inhibitory Activity (IC50, nM) MAO-A
T4 construct: purchased Sigma-Aldrich
T4 sequence (P21397 1-527): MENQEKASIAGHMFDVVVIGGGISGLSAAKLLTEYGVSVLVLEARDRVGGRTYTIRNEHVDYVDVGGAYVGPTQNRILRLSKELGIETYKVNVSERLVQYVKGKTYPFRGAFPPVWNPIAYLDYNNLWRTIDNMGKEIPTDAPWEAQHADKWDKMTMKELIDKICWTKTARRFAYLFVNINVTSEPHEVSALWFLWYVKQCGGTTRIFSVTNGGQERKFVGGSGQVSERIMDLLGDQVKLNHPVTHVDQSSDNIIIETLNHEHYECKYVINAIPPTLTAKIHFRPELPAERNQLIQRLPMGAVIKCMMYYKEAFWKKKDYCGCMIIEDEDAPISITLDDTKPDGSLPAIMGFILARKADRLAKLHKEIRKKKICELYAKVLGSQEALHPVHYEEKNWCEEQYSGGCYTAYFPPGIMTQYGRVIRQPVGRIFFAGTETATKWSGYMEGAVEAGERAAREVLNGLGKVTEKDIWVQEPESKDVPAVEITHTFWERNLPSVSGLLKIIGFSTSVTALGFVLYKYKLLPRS
Method in brief: as §1

| SMILES | IC50 [1] [nM] | IC50 [2] [nM] | IC50 [3] [nM] | IC50 [4] [nM] |
| --- | --- | --- | --- | --- |
| Cc1cc(-n2cnn(C/C(=C/F)CN)c2=O)ccc1Br [Example 16, 2-[(2E)-2-(aminomethyl)-3-fluoroprop-2-en-1-yl]-4-(4-bromo-3-methylphenyl)-2,4-dihydro-3H-1,2,4-triazol-3-one hydrochloride] | 12 | 141 | 0.74 | 32000 |
| NC/C(=C\F)Cn1ncn(-c2cc(F)c(Br)cc2F)c1=O [Example 23, 2-[(2E)-2-(aminomethyl)-3-fluoroprop-2-en-1-yl]-4-(4-bromo-2,5-difluorophenyl)-2,4-dihydro-3H-1,2,4-triazol-3-one hydrochloride] | 32 | 142 | 2.2 | 5200 |
| NC/C(=C\F)Cn1ncn(-c2ccc(-c3ccc4nonc4c3)cc2F)c1=O [Example 46, 2-[(2E)-2-(aminomethyl)-3-fluoroprop-2-en-1-yl]-4-[4-(2,1,3-benzooxadiazol-5-yl)-2-fluorophenyl]-2,4-dihydro-3H-1,2,4-triazol-3-one hydrochloride] | 0.76 | < 10 | 0.32 | 120 |
| NC/C(=C/F)Cn1ncn(-c2ccc(Br)cc2F)c1=O [Example 11, 2-[(2Z)-2-(aminomethyl)-3-fluoroprop-2-en-1-yl]-4-(4-bromo-2-fluorophenyl)-2,4-dihydro-3H-1,2,4-triazol-3-one hydrochloride] | 209 | 12 | 1.5 | 200 |
| Cc1cc(-n2cnn(C/C(=C\F)CN)c2=O)ccc1Br [Example 15, 2-[(2Z)-2-(aminomethyl)-3-fluoroprop-2-en-1-yl]-4-(4-bromo-3-methylphenyl)-2,4-dihydro-3H-1,2,4-triazol-3-one] | 85 | 9.8 | 2.2 | 710 |
| Cc1cc(-c2ccc(S(C)(=O)=O)cc2)cnc1-n1cnn(C/C(=C/F)CN)c1=O [Example 133, 2-[(2E)-2-(aminomethyl)-3-fluoroprop-2-en-1-yl]-4-{3-methyl-5-[4-(methylsulfonyl)phenyl]pyridin-2-yl}-2,4-dihydro-3H-1,2,4-triazol-3-one hydrochloride] | 220 | > 10000 | 0.84 | > 100000 |
| CC(=O)Nc1ccc(-c2cnc(-n3cnn(C/C(=C/F)CN)c3=O)c(C)c2)cc1 [Example 134, N-[4-(6-{1-[(2E)-2-(aminomethyl)-3-fluoroprop-2-en-1-yl]-5-oxo-1,5-dihydro-4H-1,2,4-triazol-4-yl}-5-methylpyridin-3-yl)phenyl]acetamide hydrochloride] | 1200 | > 10000 | 0.55 | > 100000 |
| Cc1cc(-c2ccc(N3CCNCC3)cc2)cnc1-n1cnn(C/C(=C/F)CN)c1=O [Example 145, 2-[(2E)-2-(aminomethyl)-3-fluoroprop-2-en-1-yl]-4-{3-methyl-5-[4-(piperazin-1-yl)phenyl]pyridin-2-yl}-2,4-dihydro-3H-1,2,4-triazol-3-one hydrochloride] | 13000 | > 10000 | 0.9 | > 100000 |
| NC/C(=C/F)Cn1ncn(-c2ccc(F)c(F)c2)c1=O [Example 9, 2-[(2Z)-2-(aminomethyl)-3-fluoroprop-2-en-1-yl]-4-(3,4-difluorophenyl)-2,4-dihydro-3H-1,2,4-triazol-3-one] | 290 | 85 | 5.4 | 2100 |
| Cc1cc(-n2cnn(C/C(=C\F)CN)c2=O)cnc1Br [Example 26, 2-[(2Z)-2-(aminomethyl)-3-fluoroprop-2-en-1-yl]-4-(6-bromo-5-methylpyridin-3-yl)-2,4-dihydro-3H-1,2,4-triazol-3-one hydrochloride] | 14 | 9.4 | 5.3 | > 100000 |
